Among the test systems are HCC-2998 colon; SF-268 CNS; U251 CNS; UACC-62 melanoma; T-47D breast; K-562 leukemia; A549 NSCLC; SK-MEL-2 melanoma; 786-0 renal; SK-MEL-5 melanoma.
Common to all, as to experiment: NCI tumour cell line growth inhibition, 48 h

Results on 13 compounds are retold here after PubChem BioAssay (NCI).

Several values for one entry are separate records, joined by “and”; a condition that tells them apart may be missing. Equal entries are not always repeated.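 48-hour exposure; five concentrations; linearly interpolated endpoints. Here, GI50 denotes the concentration required for 50% inhibition of growth. At the TGI there is no net growth.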

As for `CNC(=O)ON(C(C)=O)C(=O)NC`, the TGI was 272 µM in the test with HCC-2998 colon; 323 µM in the test with SF-268 CNS; 222 µM in the test with U251 CNS; 149 µM in the test on UACC-62 melanoma; 33.5 µM in the test with T-47D breast; 241 µM with K-562 leukemia. Moreover, the TGI with A549 NSCLC was determined as 283 µM; with SK-MEL-2 melanoma, 98.5 µM; in the test on 786-0 renal, 34.4 µM; in the test with SK-MEL-5 melanoma, 107 µM. The GI50 with U251 CNS is 93 µM; in the test with UACC-62 melanoma it was > 88.2 µM; with K-562 leukemia it was 51.8 µM and 26.6 µM; in the test with SK-MEL-2 melanoma, 38.3 µM; in the test with 786-0 renal, > 93.8 µM.
`CC(C)(C)[Si](C)(C)OCC1OC(n2cnc3c(=O)[nH]cnc32)CC1O` (stereo unspecified): the TGI in the test with HCC-2998 colon, with SF-268 CNS, in the test with U251 CNS, in the test with UACC-62 melanoma, in the test with T-47D breast and with K-562 leukemia was > 100 µM in each case. The TGI in the test with A549 NSCLC, in the test on SK-MEL-2 melanoma, in the test with 786-0 renal and in the test with SK-MEL-5 melanoma was > 100 µM throughout.
For the compound `CCN(CC)CCNC(=O)c1cccc2c1-c1ccccc1C2=O`, the GI50 in the test with HCC-2998 colon, with SF-268 CNS, in the test on U251 CNS, in the test on UACC-62 melanoma, with T-47D breast and with K-562 leukemia was > 100 µM throughout. Further, the GI50 with A549 NSCLC, with SK-MEL-2 melanoma, with 786-0 renal and in the test with SK-MEL-5 melanoma was > 100 µM throughout. In addition, the TGI with HCC-2998 colon, in the test with SF-268 CNS, in the test with U251 CNS, with UACC-62 melanoma, with T-47D breast and with K-562 leukemia was > 100 µM throughout. Also, the TGI in the test on A549 NSCLC, with SK-MEL-2 melanoma, in the test with 786-0 renal and with SK-MEL-5 melanoma was > 100 µM in each case.
Take `Cc1ccc(C[As+](c2ccccc2)(c2ccccc2)c2ccccc2)cc1`: the GI50 in the test with HCC-2998 colon is 0.645 µM; in the test on SF-268 CNS, 1.08 µM; with U251 CNS, 0.58 µM; with UACC-62 melanoma, 0.371 µM; with T-47D breast, 0.125 µM; in the test with K-562 leukemia it was 0.466 µM. Besides, the GI50 in the test on A549 NSCLC was 0.588 µM; with SK-MEL-2 melanoma, 0.887 µM; in the test on 786-0 renal, 3.15 µM; in the test with SK-MEL-5 melanoma, 0.23 µM. Further, the TGI is 19.6 µM in the test with HCC-2998 colon; > 42.2 µM with SF-268 CNS; 15.9 µM in the test on U251 CNS; 12.6 µM with UACC-62 melanoma; 10.3 µM with T-47D breast; 21.9 µM in the test on K-562 leukemia. Further, the TGI in the test with A549 NSCLC is 35.8 µM; in the test on SK-MEL-2 melanoma it was 4.34 µM; in the test with 786-0 renal, > 46.4 µM; in the test on SK-MEL-5 melanoma, 0.719 µM.
In the case of `CCCCC(=O)N(c1ccc(Nc2c3ccccc3nc3cc([N+](=O)[O-])ccc23)cc1)S(C)(=O)=O`, the GI50 was 14.1 µM in the test on HCC-2998 colon; 6.58 µM in the test with SF-268 CNS; 5.32 µM with U251 CNS; 7.12 µM with UACC-62 melanoma; 0.588 µM in the test on T-47D breast; 5.16 µM in the test with K-562 leukemia. The GI50 with A549 NSCLC is 1.99 µM; in the test with SK-MEL-2 melanoma, 23.3 µM; in the test with 786-0 renal, 4.3 µM; in the test on SK-MEL-5 melanoma, 4.25 µM. The TGI is 30 µM in the test with HCC-2998 colon; > 77.7 µM with SF-268 CNS; > 59.1 µM in the test with U251 CNS; 26.1 µM in the test on UACC-62 melanoma; 6.73 µM in the test with T-47D breast; > 47.4 µM in the test on K-562 leukemia. The TGI with A549 NSCLC is 62.2 µM; in the test with SK-MEL-2 melanoma it was 62.9 µM; in the test on 786-0 renal it was > 100 µM; in the test with SK-MEL-5 melanoma, 18.3 µM.
Regarding `O=C(/C=C/c1ccccc1)c1cccc2ccccc12`, the GI50 in the test on HCC-2998 colon was 2.65 µM; with SF-268 CNS it was 1.99 µM; in the test on U251 CNS, 2.14 µM; with UACC-62 melanoma, 3.46 µM; in the test on T-47D breast, 2.89 µM; in the test with K-562 leukemia, 1.61 µM. Also, the GI50 in the test with A549 NSCLC was 2.96 µM; in the test with SK-MEL-2 melanoma, 2.97 µM; with 786-0 renal it was 2.82 µM; with SK-MEL-5 melanoma, 2.98 µM. The TGI in the test on HCC-2998 colon was 6.81 µM; with SF-268 CNS, 5.13 µM; with U251 CNS, 6.02 µM; with UACC-62 melanoma, 11.8 µM; in the test on T-47D breast, 21.2 µM; in the test with K-562 leukemia, 5.26 µM. For the same compound, the TGI was determined as 10.3 µM with A549 NSCLC, 8.3 µM in the test on SK-MEL-2 melanoma, 7.25 µM in the test with 786-0 renal and 11.7 µM in the test with SK-MEL-5 melanoma.
`C=C1c2nc3ccccc3n2C=C(c2cccc(Cl)c2)N1Cc1ccc(OC)cc1`: the GI50 in the test on HCC-2998 colon was 2.32 µM; with SF-268 CNS, 1.05 µM; in the test on U251 CNS it was 0.768 µM; in the test on UACC-62 melanoma, 0.937 µM; with T-47D breast it was 2.55 µM; in the test on K-562 leukemia, 0.29 µM. In addition, the GI50 in the test with A549 NSCLC is 3.98 µM; with SK-MEL-2 melanoma, 0.636 µM; with 786-0 renal, 3.08 µM; in the test with SK-MEL-5 melanoma, 0.276 µM. Moreover, the TGI is 13.5 µM with HCC-2998 colon; > 57.2 µM with SF-268 CNS; > 100 µM in the test on U251 CNS; 19.1 µM in the test with UACC-62 melanoma; > 80.4 µM with T-47D breast; 5.25 µM in the test on K-562 leukemia. Further, the TGI in the test with A549 NSCLC was > 100 µM; in the test with SK-MEL-2 melanoma it was 68 µM; with 786-0 renal it was 17.3 µM; with SK-MEL-5 melanoma, 3.55 µM.
As for `COc1cc2c(cc1OC)C(C(CCCCCC(CCC(C)C)C1NCCc3cc(OC)c(OC)cc31)CCC(C)C)NCC2` (stereo unspecified), the GI50 is 0.188 µM in the test on HCC-2998 colon; 1.34 µM with SF-268 CNS; 0.285 µM with U251 CNS; 1.59 µM in the test with UACC-62 melanoma; 1.44 µM in the test with T-47D breast; 0.201 µM with K-562 leukemia. The GI50 in the test with A549 NSCLC is 0.98 µM; in the test on SK-MEL-2 melanoma, 2.1 µM; with 786-0 renal, 1.73 µM; in the test on SK-MEL-5 melanoma, 1.65 µM. Besides, the TGI was determined as 0.357 µM with HCC-2998 colon; 2.79 µM in the test on SF-268 CNS; 0.979 µM with U251 CNS; 2.97 µM in the test with UACC-62 melanoma; 3.06 µM in the test with T-47D breast; 0.441 µM in the test on K-562 leukemia. In addition, the TGI with A549 NSCLC worked out at 2.44 µM; with SK-MEL-2 melanoma it was 3.72 µM; in the test on 786-0 renal it was 3.46 µM; in the test on SK-MEL-5 melanoma it was 3.04 µM.
Turning to `O=S1(=O)c2ccccc2N(c2ccccc2)c2nnnn21`, the TGI with HCC-2998 colon is 36.4 µM; with SF-268 CNS, > 100 µM; in the test with U251 CNS, > 100 µM; in the test on UACC-62 melanoma, 37.1 µM; in the test with T-47D breast, > 100 µM; in the test with K-562 leukemia, > 100 µM. In addition, the TGI with A549 NSCLC was > 100 µM; with SK-MEL-2 melanoma, > 100 µM; with 786-0 renal, 32.7 µM; in the test on SK-MEL-5 melanoma it was > 100 µM.
For the compound `CC1=CC(=O)N(c2cccc3c(N4C(=O)C=C(C)C4=O)cccc23)C1=O`, the GI50 with HCC-2998 colon is 18.4 µM; in the test with SF-268 CNS it was 6.37 µM; in the test with U251 CNS it was 5.88 µM; with UACC-62 melanoma, 7.68 µM; with T-47D breast, 2.07 µM; in the test on K-562 leukemia, 1.9 µM. The GI50 in the test on A549 NSCLC was 32.5 µM; in the test on SK-MEL-2 melanoma, 31.5 µM; in the test with 786-0 renal, 7.5 µM; in the test on SK-MEL-5 melanoma, 15.5 µM. Also, the TGI in the test with HCC-2998 colon amounted to 34.3 µM; in the test with SF-268 CNS, 23.8 µM; in the test on U251 CNS, 19.5 µM; with UACC-62 melanoma it was 20.5 µM; with T-47D breast, 9.12 µM; with K-562 leukemia it was 9.45 µM. Moreover, the TGI in the test on A549 NSCLC is > 100 µM; with SK-MEL-2 melanoma it was > 100 µM; in the test with 786-0 renal, 23.5 µM; in the test on SK-MEL-5 melanoma it was 36.3 µM.
Regarding `C/C=C(\N=C=S)C(=O)OC1C(COC(C)=O)OC([C@]2(O)CC(=O)C(=N)C(C(=O)O)=C2O)C(O)C1OC1CC(OC)C(O)([C@@H](C)OC(=O)[C@@H](C)CC)C(C)O1` (stereo partly specified), the TGI in the test on HCC-2998 colon came out at 40.1 µM; in the test with SF-268 CNS, 23.2 µM; in the test with U251 CNS it was 21.8 µM; with UACC-62 melanoma, 10.3 µM; in the test with T-47D breast, 42.1 µM; in the test on K-562 leukemia, 14.6 µM. For the same compound, the TGI was > 80.6 µM in the test on A549 NSCLC, 20 µM in the test on SK-MEL-2 melanoma, 26.6 µM in the test on 786-0 renal and 28.6 µM with SK-MEL-5 melanoma.
Turning to `Brc1ccccc2cc(-c3ccccc3)nc1-2`, the TGI in the test with HCC-2998 colon is 10.8 µM; in the test with SF-268 CNS, 28.7 µM; in the test with U251 CNS, 37.5 µM; in the test with UACC-62 melanoma it was 23.7 µM; in the test on T-47D breast it was > 100 µM; in the test on K-562 leukemia it was > 61.2 µM. Also, the TGI in the test with A549 NSCLC worked out at 53 µM; in the test on SK-MEL-2 melanoma, 18.6 µM; in the test with 786-0 renal it was 10.8 µM; in the test on SK-MEL-5 melanoma, 36.2 µM. Besides, in the test on T-47D breast, the GI50 was 15.7 µM.
For the compound `Cn1c(CCCC(=O)O)nc2cc(N(CCCl)CCCl)ccc21`, the GI50 in the test with HCC-2998 colon is > 65.7 µM; in the test with SF-268 CNS it was 68.5 µM; with U251 CNS, 72.7 µM; in the test on UACC-62 melanoma, 52.5 µM; in the test with T-47D breast, 56.2 µM; in the test on K-562 leukemia, > 100 µM. Also, the GI50 in the test on A549 NSCLC was > 100 µM; in the test on SK-MEL-2 melanoma, > 100 µM; with 786-0 renal it was > 80.9 µM; in the test on SK-MEL-5 melanoma, > 71.6 µM. The TGI in the test with HCC-2998 colon, in the test on SF-268 CNS, in the test with U251 CNS, in the test on UACC-62 melanoma, with T-47D breast and with K-562 leukemia was > 100 µM each time. For the same compound, the TGI in the test with A549 NSCLC, with SK-MEL-2 melanoma, with 786-0 renal and in the test on SK-MEL-5 melanoma was > 100 µM in each case.
